Assay results: PubChem BioAssay AID2060611 (Molecular Pharmacology Branch, DTP, NCI, 2025)
Values joined by “and” are separate entries in the source; they are usually repeats but may differ in a detail not shown here. Identical values can stand only once.

Test system: 628569-122-R-J1-PDC complex spheroid viability
Assay: Anticancer human tumor 628569-122-R-J1-PDC patient-derived head and neck squamous carcinoma cell line growth inhibition [CLK]
Settings: for viability, T/C: stronger effect = lower value
Summary of the method: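 Patient-derived tumor cells grown as complex spheroids with HUVEC endothelial cells and mesenchymal stem cells, treated with drug combinations. Concentrations descend in half-log steps from near clinical Cmax, or from 10 microM if Cmax unknown.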

[1] = curve of first compound, second compound 0.0316 µM
[2] = curve of first compound, second compound 0.1 µM
[3] = curve of first compound, second compound 0.316 µM
[4] = curve of first compound, second compound 1 µM
[5] = curve of first compound, second compound 3.16 µM
[6] = curve of first compound, second compound 10 µM
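Also: spheroids exposed to agents for seven days before readout.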
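For viability, T/C in this document: 100% = DMSO vehicle control viability.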

Question: Which results are given for `CC(C)CC(NC(=O)C(Cc1ccccc1)NC(=O)c1cnccn1)B(O)O` (stereo unspecified) + CN1CCN(c2cc(C(=O)Nc3cc4cc(-c5cnn(C)c5)ccc4cn3)ccn2)CC1?
Answer: IC50 [1]: 0.00441 µM; IC50 [2]: 0.00168 µM; IC50 [3]: < 0.000949 µM; IC50 [4]: < 0.000949 µM; IC50 [5]: < 0.000949 µM; IC50 [6]: < 0.000949 µM; viability, T/C (second compound 0.0316 µM, first compound 0.000949 µM): 83.3%; viability, T/C (second compound 0.0316 µM, first compound 0.003 µM): 70.2%; viability, T/C (second compound 0.0316 µM, first compound 0.00949 µM): 9.85%; viability, T/C (second compound 0.0316 µM, first compound 0.03 µM): 8.4%; viability, T/C (second compound 0.0316 µM, first compound 0.0949 µM): 6.4%; viability, T/C (second compound 0.0316 µM, first compound 0.3 µM): 4.25%; viability, T/C (second compound 0.1 µM, first compound 0.000949 µM): 62.6%; viability, T/C (second compound 0.1 µM, first compound 0.003 µM): 37.3%; viability, T/C (second compound 0.1 µM, first compound 0.00949 µM): 7.61%; viability, T/C (second compound 0.1 µM, first compound 0.03 µM): 6.34%; viability, T/C (second compound 0.1 µM, first compound 0.0949 µM): 6.04%; viability, T/C (second compound 0.1 µM, first compound 0.3 µM): 5.02%; viability, T/C (second compound 0.316 µM, first compound 0.000949 µM): 37.8%; viability, T/C (second compound 0.316 µM, first compound 0.003 µM): 4.9%; viability, T/C (second compound 0.316 µM, first compound 0.00949 µM): 10.6%; viability, T/C (second compound 0.316 µM, first compound 0.03 µM): 4.39%; viability, T/C (second compound 0.316 µM, first compound 0.0949 µM): 4.89%; viability, T/C (second compound 0.316 µM, first compound 0.3 µM): 2.72%; viability, T/C (second compound 1 µM, first compound 0.000949 µM): 9.15%; viability, T/C (second compound 1 µM, first compound 0.003 µM): 8.04%; viability, T/C (second compound 1 µM, first compound 0.00949 µM): 4.76%; viability, T/C (second compound 1 µM, first compound 0.03 µM): 6.26%; viability, T/C (second compound 1 µM, first compound 0.0949 µM): 7.32%; viability, T/C (second compound 1 µM, first compound 0.3 µM): 5.71%; viability, T/C (second compound 3.16 µM, first compound 0.000949 µM): 6.67%; viability, T/C (second compound 3.16 µM, first compound 0.003 µM): 6.69%; viability, T/C (second compound 3.16 µM, first compound 0.00949 µM): 5.84%; viability, T/C (second compound 3.16 µM, first compound 0.03 µM): 5.55%; viability, T/C (second compound 3.16 µM, first compound 0.0949 µM): 5.83%; viability, T/C (second compound 3.16 µM, first compound 0.3 µM): 4.09%; viability, T/C (second compound 10 µM, first compound 0.000949 µM): 8.8%; viability, T/C (second compound 10 µM, first compound 0.003 µM): 1.66%; viability, T/C (second compound 10 µM, first compound 0.00949 µM): 2.36%; viability, T/C (second compound 10 µM, first compound 0.03 µM): 1.91%; viability, T/C (second compound 10 µM, first compound 0.0949 µM): 4.23%; viability, T/C (second compound 10 µM, first compound 0.3 µM): 0.93%

Question: With `CC1(C)CCC(CN2CCN(c3ccc(C(=O)NS(=O)(=O)c4ccc(NCC5CCOCC5)c([N+](=O)[O-])c4)c(Oc4cnc5[nH]ccc5c4)c3)CC2)=C(c2ccc(Cl)cc2)C1` as the molecule, how does the viability, T/C (compound 0.0316 µM) read?
Answer: 96.8% and 88.2%

Question: What about the viability, T/C (compound 0.1 µM) of the same molecule?
Answer: 97.5% and 99.5%

Question: And the viability, T/C (compound 0.316 µM)?
Answer: 86.7% and 95.1%

Question: And the viability, T/C (compound 1 µM)?
Answer: 101% and 91.4%

Question: And the viability, T/C (compound 3.16 µM)?
Answer: 101% and 90.6%

Question: And the viability, T/C (compound 10 µM)?
Answer: 80.5% and 73.1%

Question: What about the IC50 (curve of compound) of the same molecule?
Answer: > 10 µM

Question: For `C=C(F)C(=O)N1CCN(c2nc(OCC3CCCN3C)nc3c2CCN(c2cccc4cccc(Cl)c24)C3)CC1CC#N` (stereo unspecified) + CNC(=O)c1ccc(Nc2nc(OC3CCCC3)c3c(-c4ccc5nc(C)oc5c4)c[nH]c3n2)c(OC)c1, which IC50 [1] is on record?
Answer: 5.89 µM

Question: And the IC50 [2]?
Answer: 4.25 µM

Question: And the IC50 [3]?
Answer: 3.64 µM

Question: And the IC50 [4]?
Answer: 0.0316 µM

Question: And the IC50 [5]?
Answer: < 0.0316 µM

Question: What about the IC50 [6] of the same molecule?
Answer: < 0.0316 µM

Question: And the viability, T/C (second compound 0.0316 µM, first compound 0.0316 µM)?
Answer: 84.5%

Question: What about the viability, T/C (second compound 0.0316 µM, first compound 0.1 µM) of the same molecule?
Answer: 85.8%

Question: And the viability, T/C (second compound 0.0316 µM, first compound 0.316 µM)?
Answer: 88.8%

Question: And the viability, T/C (second compound 0.0316 µM, first compound 1 µM)?
Answer: 112%

Question: And the viability, T/C (second compound 0.0316 µM, first compound 3.16 µM)?
Answer: 126%

Question: What about the viability, T/C (second compound 0.0316 µM, first compound 10 µM) of the same molecule?
Answer: 8.03%

Question: What about the viability, T/C (second compound 0.1 µM, first compound 0.0316 µM) of the same molecule?
Answer: 58.8%

Question: And the viability, T/C (second compound 0.1 µM, first compound 0.1 µM)?
Answer: 53.8%

Question: What about the viability, T/C (second compound 0.1 µM, first compound 0.316 µM) of the same molecule?
Answer: 65.5%

Question: What about the viability, T/C (second compound 0.1 µM, first compound 1 µM) of the same molecule?
Answer: 64%

Question: What about the viability, T/C (second compound 0.1 µM, first compound 3.16 µM) of the same molecule?
Answer: 90.2%

Question: What about the viability, T/C (second compound 0.1 µM, first compound 10 µM) of the same molecule?
Answer: 1.94%

Question: And the viability, T/C (second compound 0.316 µM, first compound 0.0316 µM)?
Answer: 54.6%

Question: And the viability, T/C (second compound 0.316 µM, first compound 0.1 µM)?
Answer: 47.9%

Question: What about the viability, T/C (second compound 0.316 µM, first compound 0.316 µM) of the same molecule?
Answer: 49.3%

Question: And the viability, T/C (second compound 0.316 µM, first compound 1 µM)?
Answer: 56.3%

Question: And the viability, T/C (second compound 0.316 µM, first compound 3.16 µM)?
Answer: 72.1%

Question: What about the viability, T/C (second compound 0.316 µM, first compound 10 µM) of the same molecule?
Answer: 6.63%

Question: And the viability, T/C (second compound 1 µM, first compound 0.0316 µM)?
Answer: 46.5%

Question: What about the viability, T/C (second compound 1 µM, first compound 0.1 µM) of the same molecule?
Answer: 42.9%

Question: What about the viability, T/C (second compound 1 µM, first compound 0.316 µM) of the same molecule?
Answer: 43.7%

Question: And the viability, T/C (second compound 1 µM, first compound 1 µM)?
Answer: 49%

Question: And the viability, T/C (second compound 1 µM, first compound 3.16 µM)?
Answer: 62.8%

Question: What about the viability, T/C (second compound 1 µM, first compound 10 µM) of the same molecule?
Answer: 1.4%

Question: And the viability, T/C (second compound 3.16 µM, first compound 0.0316 µM)?
Answer: 46.2%

Question: And the viability, T/C (second compound 3.16 µM, first compound 0.1 µM)?
Answer: 43.3%

Question: And the viability, T/C (second compound 3.16 µM, first compound 0.316 µM)?
Answer: 45.4%

Question: And the viability, T/C (second compound 3.16 µM, first compound 1 µM)?
Answer: 51.5%

Question: And the viability, T/C (second compound 3.16 µM, first compound 3.16 µM)?
Answer: 48.1%

Question: What about the viability, T/C (second compound 3.16 µM, first compound 10 µM) of the same molecule?
Answer: 0.86%

Question: And the viability, T/C (second compound 10 µM, first compound 0.0316 µM)?
Answer: 53.9%

Question: What about the viability, T/C (second compound 10 µM, first compound 0.1 µM) of the same molecule?
Answer: 36.1%

Question: What about the viability, T/C (second compound 10 µM, first compound 0.316 µM) of the same molecule?
Answer: 46.7%

Question: What about the viability, T/C (second compound 10 µM, first compound 1 µM) of the same molecule?
Answer: 54.5%

Question: What about the viability, T/C (second compound 10 µM, first compound 3.16 µM) of the same molecule?
Answer: 43.8%

Question: What about the viability, T/C (second compound 10 µM, first compound 10 µM) of the same molecule?
Answer: 5.33%

Question: `CN1CCN(c2cc(C(=O)Nc3cc4cc(-c5cnn(C)c5)ccc4cn3)ccn2)CC1` was tested. Which viability, T/C (compound 0.0316 µM) did it give?
Answer: 104% [middle of 12 runs]

Question: What about the viability, T/C (compound 0.1 µM) of the same molecule?
Answer: 69.2% [middle of 12 runs]

Question: What about the viability, T/C (compound 0.316 µM) of the same molecule?
Answer: 35.6% [middle of 12 runs]

Question: And the viability, T/C (compound 1 µM)?
Answer: 5.28% [middle of 12 runs]

Question: And the viability, T/C (compound 3.16 µM)?
Answer: 7.69% [middle of 12 runs]

Question: And the viability, T/C (compound 10 µM)?
Answer: 6.81% [middle of 12 runs]

Question: And the IC50 (compound alone, run of 09/18/2023)?
Answer: 187 nM [middle of 12 runs]

Question: Which viability, T/C (compound 0.0316 µM) does the source give for `O=c1[nH]cc(F)c(=O)[nH]1` here?
Answer: 93.5% and 94.5%

Question: What about the viability, T/C (compound 0.1 µM) of the same molecule?
Answer: 103% and 97.7%

Question: And the viability, T/C (compound 0.316 µM)?
Answer: 96% and 86.2%

Question: What about the viability, T/C (compound 1 µM) of the same molecule?
Answer: 82.7% and 70.5%

Question: What about the viability, T/C (compound 3.16 µM) of the same molecule?
Answer: 84.2% and 69.9%

Question: What about the viability, T/C (compound 10 µM) of the same molecule?
Answer: 68.2% and 50.6%

Question: And the IC50 (curve of compound)?
Answer: > 10 µM

Question: How did the viability, T/C (compound 0.0316 µM) turn out when `C#Cc1c(F)ccc2cc(O)cc(-c3ncc4c(N5CC6CCC(C5)N6)nc(OCC56CCCN5CC(F)C6)nc4c3F)c12` (stereo unspecified) was run?
Answer: 88.1% and 89.3%

Question: And the viability, T/C (compound 0.1 µM)?
Answer: 88.5% and 80.7%

Question: And the viability, T/C (compound 0.316 µM)?
Answer: 73.6% and 65.8%

Question: What about the viability, T/C (compound 1 µM) of the same molecule?
Answer: 68.5% and 81%

Question: And the viability, T/C (compound 3.16 µM)?
Answer: 92% and 112%

Question: What about the viability, T/C (compound 10 µM) of the same molecule?
Answer: 120% and 91.5%

Question: What about the IC50 (curve of compound) of the same molecule?
Answer: > 10 µM

Question: For `COc1cccc2c1C(=O)c1c(O)c3c(c(O)c1C2=O)CC(O)(C(=O)CO)CC3OC1CC(N)C(O)C(C)O1` (stereo unspecified), which viability, T/C (compound 0.0316 µM) is on record?
Answer: 79.4% and 65.2%

Question: And the viability, T/C (compound 0.1 µM)?
Answer: 51.3% and 43.7%

Question: What about the viability, T/C (compound 0.316 µM) of the same molecule?
Answer: 107% and 88.3%

Question: What about the viability, T/C (compound 1 µM) of the same molecule?
Answer: 31.9% and 12.3%

Question: And the viability, T/C (compound 3.16 µM)?
Answer: 12.3% and 14.2%

Question: And the viability, T/C (compound 10 µM)?
Answer: 4.08% and 10.9%

Question: What about the IC50 (curve of compound) of the same molecule?
Answer: 0.644 µM and 0.445 µM

Question: With `CCCS(=O)(=O)Nc1ccc(F)c(C(=O)c2c[nH]c3ncc(-c4ccc(Cl)cc4)cc23)c1F` as the molecule, how does the viability, T/C (compound 0.0316 µM) read?
Answer: 107% and 87%

Question: And the viability, T/C (compound 0.1 µM)?
Answer: 88.2% and 74.5%

Question: And the viability, T/C (compound 0.316 µM)?
Answer: 94.3% and 70.7%

Question: And the viability, T/C (compound 1 µM)?
Answer: 108% and 71.2%

Question: What about the viability, T/C (compound 3.16 µM) of the same molecule?
Answer: 104% and 77.5%

Question: And the viability, T/C (compound 10 µM)?
Answer: 83.7% and 70.3%

Question: What about the IC50 (curve of compound) of the same molecule?
Answer: > 10 µM
